These results are taken from US11319299B2, “Substituted carboxamides as inhibitors of WDR5 protein-protein binding” (PROPELLON THERAPEUTICS INC., priority 2016, dated 2022).

This test has as its target WDR5 (Homo sapiens (Human), UniProt P61964). Put plainly: Surface Plasmon Resonance (SPR) assay, KD and residence time. The note with it: surface plasmon resonance (SPR); read-out: WDR5 binding affinity (KD). It is filed as binding.
Regarding `CNC(=O)c1cc(-c2cc(NC(=O)c3c[nH]c(=O)cc3C(F)F)c(N3C[C@@H](C)N(C)[C@@H](C)C3)cc2F)ccc1F` [Example 606, 4-(difluoromethyl)-N-[4-fluoro-5-[4-fluoro-3-(methylcarbamoyl)phenyl]-2-[(3R,5S)-3,4,5-trimethylpiperazin-1-yl]phenyl]-6-oxo-1H-pyridine-3-carboxamide], the Kd was found to be 1.86 nM.

As to `C[C@@H]1CN(c2cc(F)c(C3=CCN(C(=O)N4CCCC4)C3)cc2NC(=O)c2c[nH]c(=O)cc2C(F)F)C[C@H](C)N1C` [Example 612, 4-(Difluoromethyl)-N-(4-fluoro-5-(1-(pyrrolidine-1-carbonyl)-2,5-dihydro-1H-pyrrol-3-yl)-2-((3S,5R)-3,4,5-trimethylpiperazin-1-yl)phenyl)-6-oxo-1,6-dihydropyridine-3-carboxamide], the Kd worked out at 1.94 nM.

With `C[C@@H]1CN(c2cc(F)c(C3=CCCN(c4ncc(C#N)s4)C3)cc2NC(=O)c2c[nH]c(=O)cc2C(F)(F)F)C[C@H](C)N1C` [Example 615, N-[5-[1-(5-cyano-1,3-thiazol-2-yl)-3,6-dihydro-2H-pyridin-5-yl]-4-fluoro-2-[(3R,5S)-3,4,5-trimethylpiperazin-1-yl]phenyl]-6-oxo-4-(trifluoromethyl)-1H-pyridine-3-carboxamide], the Kd was 0.375 nM.

With `C[C@@H]1CN(c2cc(F)c(-c3csc(N4CCOCC4)n3)cc2NC(=O)c2c[nH]c(=O)cc2C(F)(F)F)C[C@H](C)N1C` [Example 616, N-[4-fluoro-5-(2-morpholin-4-yl-1,3-thiazol-4-yl)-2-[(3R,5S)-3,4,5-trimethylpiperazin-1-yl]phenyl]-6-oxo-4-(trifluoromethyl)-1H-pyridine-3-carboxamide], the Kd was 0.748 nM.

As for `C[C@@H]1CN(c2cc(F)c(-c3cnc(N4CCOCC4)s3)cc2NC(=O)c2c[nH]c(=O)cc2C(F)(F)F)C[C@H](C)N1C` [Example 619, N-[4-fluoro-5-(2-morpholin-4-yl-1,3-thiazol-5-yl)-2-[(3R,5S)-3,4,5-trimethylpiperazin-1-yl]phenyl]-6-oxo-4-(trifluoromethyl)-1H-pyridine-3-carboxamide], the Kd was 0.948 nM.

With `C[C@@H]1CN(c2cc(F)c(-c3csc(N4CCOCC4)n3)cc2NC(=O)c2cn(C)c(=O)cc2C(F)F)C[C@H](C)N1C` [Example 622, 4-(difluoromethyl)-N-[4-fluoro-5-(2-morpholin-4-yl-1,3-thiazol-4-yl)-2-[(3R,5S)-3,4,5-trimethylpiperazin-1-yl]phenyl]-1-methyl-6-oxopyridine-3-carboxamide], the Kd stood at 5.15 nM.

Consider `C[C@@H]1CN(c2cc(F)c(-c3cnc(N4CCOCC4)s3)cc2NC(=O)c2cn(C)c(=O)cc2C(F)F)C[C@H](C)N1C` [Example 623, 4-(difluoromethyl)-N-[4-fluoro-5-(2-morpholin-4-yl-1,3-thiazol-5-yl)-2-[(3R,5S)-3,4,5-trimethylpiperazin-1-yl]phenyl]-1-methyl-6-oxopyridine-3-carboxamide], for which the Kd is 5.57 nM.

Take `C[C@@H]1CN(c2cc(F)c(-c3cc(C(=O)NC(C)(C)CC(C)(C)C)c(F)cc3F)cc2NC(=O)c2c[nH]c(=O)cc2C(F)(F)F)C[C@H](C)N1C` [Example 626, N-[5-[2,4-difluoro-5-(2,4,4-trimethylpentan-2-ylcarbamoyl)phenyl]-4-fluoro-2-[(3R,5S)-3,4,5-trimethylpiperazin-1-yl]phenyl]-6-oxo-4-(trifluoromethyl)-1H-pyridine-3-carboxamide]: the Kd is 5.24 nM.

Turning to `C[C@@H]1CN(c2cc(F)c(-c3cc(C(=O)NC(C)(C)CC(C)(C)C)c(F)cc3F)cc2NC(=O)c2c[nH]c(=O)cc2C(F)F)C[C@H](C)N1C` [Example 627, 4-(difluoromethyl)-N-[5-[2,4-difluoro-5-(2,4,4-trimethylpentan-2-ylcarbamoyl)phenyl]-4-fluoro-2-[(3R,5S)-3,4,5-trimethylpiperazin-1-yl]phenyl]-6-oxo-1H-pyridine-3-carboxamide], the Kd turned out to be 23.3 nM.

On to `C[C@H]1CN(c2cc(F)c(C3=CCN(C(=O)N4CCCC4)C3)cc2NC(=O)c2c[nH]c(=O)cc2C(F)F)CCN1C` [Example 629, (S)-4-(Sifluoromethyl)-N-(2-(3,4-dimethylpiperazin-1-yl)-4-fluoro-5-(1-(pyrrolidine-1-carbonyl)-2,5-dihydro-1H-pyrrol-3-yl)phenyl)-6-oxo-1,6-dihydropyridine-3-carboxamide], for which the Kd was 2.22 nM.

As for `C[C@@H]1CN(c2cc(F)c(C3=CCN(C(=O)OC4(C)CCC4)C3)cc2NC(=O)c2c[nH]c(=O)cc2C(F)F)C[C@H](C)N1C` [Example 630, 1-Methylcyclobutyl 3-(5-(4-(difluoromethyl)-6-oxo-1,6-dihydropyridine-3-carboxamido)-2-fluoro-4-((3S,5R)-3,4,5-trimethylpiperazin-1-yl)phenyl)-2,5-dihydro-1H-pyrrole-1-carboxylate], the Kd was found to be 1.98 nM.

On to `C[C@H]1CN(c2cc(F)c(C3=CCN(C(=O)OC4(C)CCC4)C3)cc2NC(=O)c2c[nH]c(=O)cc2C(F)F)CCN1C` [Example 631, 1-Methylcyclobutyl (S)-3-(5-(4-(difluoromethyl)-6-oxo-1,6-dihydropyridine-3-carboxamido)-4-(3,4-dimethylpiperazin-1-yl)-2-fluorophenyl)-2,5-dihydro-1H-pyrrole-1-carboxylate], for which the Kd came out at 2.65 nM.

With `C[C@@H]1CN(c2cc(F)c(-c3cc(C(N)=O)c(F)cc3F)cc2NC(=O)c2c[nH]c(=O)cc2C(F)(F)F)C[C@H](C)N1C` [Example 632, N-[5-(5-carbamoyl-2,4-difluorophenyl)-4-fluoro-2-[(3R,5S)-3,4,5-trimethylpiperazin-1-yl]phenyl]-6-oxo-4-(trifluoromethyl)-1H-pyridine-3-carboxamide], the Kd was determined as 11.4 nM.

For `C[C@@H]1CN(c2cc(F)c(-c3cc(C(N)=O)c(F)cc3F)cc2NC(=O)c2c[nH]c(=O)cc2C(F)F)C[C@H](C)N1C` [Example 633, N-[5-(5-carbamoyl-2,4-difluorophenyl)-4-fluoro-2-[(3R,5S)-3,4,5-trimethylpiperazin-1-yl]phenyl]-4-(difluoromethyl)-6-oxo-1H-pyridine-3-carboxamide], the dissociation constant Kd stood at 11.9 nM.

With `C[C@@H]1CN(c2cc(F)c(-c3cc(C(N)=O)c(F)cc3F)cc2NC(=O)c2ccc(F)cc2C(F)(F)F)C[C@H](C)N1C` [Example 634, 2,4-difluoro-5-[2-fluoro-5-[[4-fluoro-2-(trifluoromethyl)benzoyl]amino]-4-[(3R,5S)-3,4,5-trimethylpiperazin-1-yl]phenyl]benzamide], the Kd was found to be 69.5 nM.

As for `C[C@@H]1CN(c2cc(F)c(-c3cnc(N4CCC(C)(O)CC4)nc3)cc2NC(=O)c2ccc(F)cc2C(F)(F)F)C[C@H](C)N1C` [Example 636, 4-Fluoro-N-[4-fluoro-5-[2-(4-hydroxy-4-methylpiperidin-1-yl)pyrimidin-5-yl]-2-[(3R,5S)-3,4,5-trimethylpiperazin-1-yl]phenyl]-2-(trifluoromethyl)benzamide], the equilibrium dissociation constant (Kd) stood at 1.42 nM.

On to `C[C@@H]1CN(c2cc(F)c(C3=CCN(C(=O)OC4CC(F)(F)C4)C3)cc2NC(=O)c2c[nH]c(=O)cc2C(F)F)C[C@H](C)N1C` [Example 637, 3,3-Difluorocyclobutyl 3-(5-(4-(difluoromethyl)-6-oxo-1,6-dihydropyridine-3-carboxamido)-2-fluoro-4-((3S,5R)-3,4,5-trimethylpiperazin-1-yl)phenyl)-2,5-dihydro-1H-pyrrole-1-carboxylate], for which the Kd was found to be 2.26 nM.

In the case of `C[C@H]1CN(c2cc(F)c(C3=CCN(C(=O)OC4CC(F)(F)C4)C3)cc2NC(=O)c2c[nH]c(=O)cc2C(F)F)CCN1C` [Example 638, 3,3-Difluorocyclobutyl (S)-3-(5-(4-(difluoromethyl)-6-oxo-1,6-dihydropyridine-3-carboxamido)-4-(3,4-dimethylpiperazin-1-yl)-2-fluorophenyl)-2,5-dihydro-1H-pyrrole-1-carboxylate], the Kd was determined as 2.27 nM.

Take `C[C@H]1CN(c2cc(F)c(C3=CCN(c4cnc(C#N)nc4)CC3)cc2NC(=O)c2c[nH]c(=O)cc2C(F)F)CCN1C` [Example 639, (S)—N-(5-(1-(2-cyanopyrimidin-5-yl)-1,2,3,6-tetrahydropyridin-4-yl)-2-(3,4-dimethylpiperazin-1-yl)-4-fluorophenyl)-4-(difluoromethyl)-6-oxo-1,6-dihydropyridine-3-carboxamide]: the Kd stood at 4.97 nM.

For `C[C@@H]1CN(c2ncc(-c3cc(NC(=O)c4cn(C)c(=O)cc4C(F)(F)F)c(N4C[C@@H](C)N(C)[C@@H](C)C4)cc3F)cn2)CCO1` [Example 640, N-[4-fluoro-5-[2-[(2R)-2-methylmorpholin-4-yl]pyrimidin-5-yl]-2-[(3R,5S)-3,4,5-trimethylpiperazin-1-yl]phenyl]-1-methyl-6-oxo-4-(trifluoromethyl)pyridine-3-carboxamide], the Kd was found to be 1.74 nM.

On to `C[C@@H]1CN(c2cc(F)c(-c3cnc(N4CCC(C)(O)CC4)nc3)cc2NC(=O)c2cn(C)c(=O)cc2C(F)(F)F)C[C@H](C)N1C` [Example 641, N-[4-fluoro-5-[2-(4-hydroxy-4-methylpiperidin-1-yl)pyrimidin-5-yl]-2-[(3R,5S)-3,4,5-trimethylpiperazin-1-yl]phenyl]-1-methyl-6-oxo-4-(trifluoromethyl)pyridine-3-carboxamide], for which the Kd was 1.92 nM.

As to `C[C@@H]1CN(c2cc(F)c(C3=CCCN(c4nc(C#N)cs4)C3)cc2NC(=O)c2c[nH]c(=O)cc2C(F)(F)F)C[C@H](C)N1C` [Example 642, N-[5-[1-(4-cyano-1,3-thiazol-2-yl)-3,6-dihydro-2H-pyridin-5-yl]-4-fluoro-2-[(3R,5S)-3,4,5-trimethylpiperazin-1-yl]phenyl]-6-oxo-4-(trifluoromethyl)-1H-pyridine-3-carboxamide], the Kd stood at 1.3 nM.

With `C[C@@H]1CN(c2cc(F)c(C3=CCCN(c4ncco4)C3)cc2NC(=O)c2c[nH]c(=O)cc2C(F)(F)F)C[C@H](C)N1C` [Example 643, N-[4-fluoro-5-[1-(1,3-oxazol-2-yl)-3,6-dihydro-2H-pyridin-5-yl]-2-[(3R5S)-3,4,5-trimethylpiperazin-1-yl]phenyl]-6-oxo-4-(trifluoromethyl)-H-pyridine-3-carboxamide], the dissociation constant (Kd) came to 1.26 nM.

In general, Kd refers to a measure of binding affinity in units of concentration.
